Measured values: patent publication US20090117154A1, “SYNTHETIC POLYVALENT CARBOHYDRATES AS COMPONENTS OF MICROBICIDES” (priority 2005, published 2009)

Target: T1, DC-SIGN (Homo sapiens, UniProt Q9NNX6)
T1 construct: made in house
Experiment: Inhibition of the binding of soluble DC-SIGN to immobilized HIV-1 Bal gp120 (plate ELISA)
Details: soluble DC-SIGN/mAb complex, gp120 captured on D7324 plate; preliminary assay; FIG. 3
Protocol: Preliminary assays were conducted on the inhibition of the synthetic polyvalent compounds against the binding between HIV-1 gp120 and DC-SIGN. Specifically, plates were coated with 5 ug/mL D7324 anti-gp120 capture antibody, in 1×PBS O/N at RT. Blocking buffer was 5% BSA in 1×TBST+1 mM CaCL2, assay/dilution buffer was 2% BSA in 1×TBST+1 mM CaCL2 and wash buffer was 1×TBST+1 mM CaCL2 (4 washes, 200 uL per well). Gp120 (CHOK1, uQuant) was captured on the D7324 plate at saturation, 500 ng/mL in assay buffer for 2 hour at RT. sDC-SIGN supernatant (Nov. 6, 2004) was supplemented with 1 mM CaCL2 and pre-complexed with 3 ug/mL anti-DC-SIGN mAb (120507, Sigma) for 1 hour at RT. Mannose products were titered 1:2 in assay buffer (Starts 1:4 in column 2), sDC-SIGN/mAb complexes were added to the titered mannose at about 1:5 (155 uL mannose+45 uL sDC-SIGN/mAb) (no sDC-SIGN in column 12), sDC-SIGN/mAb complexes mixed with mannose compounds were allowed to bind to the Gp120 plate for 1 hour at RT. Any bound sDC-SIGN/mAb complexes were detected with goat anti-mouse-IgG-HRP (Axcell) 1:2000 in assay buffer, absorbed with 2% sheep serum.

T1 sequence (Q9NNX6 59-404): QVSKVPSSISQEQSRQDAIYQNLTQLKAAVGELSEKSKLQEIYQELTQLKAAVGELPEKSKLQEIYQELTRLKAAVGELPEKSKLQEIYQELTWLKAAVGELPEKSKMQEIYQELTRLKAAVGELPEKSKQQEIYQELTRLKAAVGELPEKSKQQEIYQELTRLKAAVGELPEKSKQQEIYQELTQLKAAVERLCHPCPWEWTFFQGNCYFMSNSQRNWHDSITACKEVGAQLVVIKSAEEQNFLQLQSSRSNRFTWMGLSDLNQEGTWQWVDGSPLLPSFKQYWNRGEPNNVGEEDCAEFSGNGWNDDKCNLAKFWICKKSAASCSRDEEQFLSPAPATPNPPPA

CC(=O)N[C@@H]1[C@@H](O)[C@H](O[C@@H]2O[C@H](CO)[C@@H](O[C@@H]3O[C@H](CO[C@H]4O[C@H](CO[C@H]5O[C@H](CO)[C@@H](O)[C@H](O)[C@@H]5O[C@H]5O[C@H](CO)[C@@H](O)[C@H](O)[C@@H]5O)[C@@H](O)[C@H](O[C@H]5O[C@H](CO)[C@@H](O)[C@H](O)[C@@H]5O[C@H]5O[C@H](CO)[C@@H](O)[C@H](O)[C@@H]5O)[C@@H]4O)[C@@H](O)[C@H](O[C@H]4O[C@H](CO)[C@@H](O)[C@H](O)[C@@H]4O[C@H]4O[C@H](CO)[C@@H](O)[C@H](O)[C@@H]4O[C@H]4O[C@H](CO)[C@@H](O)[C@H](O)[C@@H]4O)[C@@H]3O)[C@H](O)[C@H]2NC(C)=O)[C@@H](CO)O[C@H]1NC(=O)C[C@H](N)C(=O)O [Man9, Man9GlcNAc2Asn]
inhibition of the binding of soluble DC-SIGN to immobilized gp120 (in words): much better than the disaccharide and monosaccharide in inhibition
